Where two headings read alike, the source gives them in different places.
Assays:
[1] = test system: Methicillin-resistant Staphylococcus aureus (MRSA); type: in vivo, rats; details: for SUV (Average ± SD), Contralateral Tibia / SUV (Average ± SD), Infected Tibia / SUV (Average ± SD), Muscle: Osteomyelitis Foreign Body model
Description: (§1) The PET probe [^68Ga]Ga-H3P2O8 was evaluated in methicillin-resistant S. aureus (MRSA) foreign-body osteomyelitis in the left tibia with a stainless steel Kirschner wire (K-wire) implant in male Wister rats, following a previously established protocol [Ref. 17]. Briefly, a 1 cm incision was made on the medial tibia and the bone exposed. A 1.5 mm hole was drilled, 0.01 mL of arachidonic acid (a sclerosing agent) and 0.05 mL of a suspension containing MRSA DRL-6169 at 10^8 cfu/mL was injected into the bone. A 5 mm threaded stainless-steel K-wire was inserted. The hole was closed with dental gypsum and the site closed. After implantation, the muscle and fascia were closed with 3-0 vicryl using simple interrupted sutures. The skin was closed with sterile wound clips and VetBond. The wound was sprayed with Aluspray and Chew Guard. After 7 days of implantation of wire, the animal was put on iron-deficient diet for 7 days and on the day of imaging, the animals were fasted for 4 hours prior to the injection of the PET probe. [^68Ga]Ga-H3P2O8 (32.81±6.28 MBq, n=18) were injected into the rat model via tail vein injection. The rat model was either a normal rat model or an osteomyelitis foreign body rat model or an inflamed foreign body rat model. PET/CT images were acquired at 15 minutes, 30 minutes, 60 minutes, and 120 minutes post-injection using Siemens Inveon MicroPET/CT Scanner (see FIGS. 17, 18, and Table 2).
(§2) The acquired PET images were visualized and analyzed for quantifying standardized uptake value (SUV) using image analysis software—MIM 7 software and PMOD. Following final imaging at 120 minutes post-injection, the animal was euthanized, and major organs and infected and inflamed tibia were extracted for gamma counting for ex-vivo biodistribution analysis (see FIG. 22). At the end of last imaging session, rats were euthanized by cardiectomy, and the operated tibia with K-wire or contralateral tibia were aseptically removed. Following removal, tibias were weighed, and Ga-68 radioactivity was counted in 2480 Wizard2 automatic gamma counter for ex-vivo biodistribution assessment. The tibias were then frozen to −80° C. The frozen tibia from each animal was crushed aseptically using a bone pulverizer chilled at −80° C. The crushed tibia without K wire was weighed and vortexed in 1 mL sterile saline. The K wire was also vortexed in 1.0 mL sterile saline separately. The vortexed tibia and K-wire saline suspension were sonicated for 5 minutes. After sonication, 1:10 serial dilutions were prepared in saline and 0.1 mL of each dilution was plated in Trypticase Soy Agar plates with 5% Sheep Blood (TSA II). After 24 hours of incubation at 37° C., the bacterial cultures in tibia suspension and K-wire suspension were quantified. In the 2-week-old osteomyelitis model used in the study, the infected tibia contained 7.00±0.19 log10 cfu/g tibia (n=10) and 5.41±0.40 log10 cfu/K-wire (n=10).

[2] = test system: Methicillin-resistant Staphylococcus aureus (MRSA); test: Ex vivo biodistribution SUV ratios (operated tibia/contralateral tibia), MRSA infection and inflammation; type: in vivo, rats; details: 120 minutes post-injection, p<0.05 (FIG. 31)
Description: The acquired PET images were visualized and analyzed for quantifying standardized uptake value (SUV) using image analysis software—MIM 7 software and PMOD. Following final imaging at 120 minutes post-injection, the animal was euthanized, and major organs and infected and inflamed tibia were extracted for gamma counting for ex-vivo biodistribution analysis (see FIG. 22). At the end of last imaging session, rats were euthanized by cardiectomy, and the operated tibia with K-wire or contralateral tibia were aseptically removed. Following removal, tibias were weighed, and Ga-68 radioactivity was counted in 2480 Wizard2 automatic gamma counter for ex-vivo biodistribution assessment. The tibias were then frozen to −80° C. […] After 24 hours of incubation at 37° C., the bacterial cultures in tibia suspension and K-wire suspension were quantified. […]
Turning now to FIG. 28, the localization of [^68Ga]Ga-H3P2O8 at an infection was investigated in comparison to [^68Ga]Ga-Citrate and [^18F]FDG. The uptake of [^68Ga]Ga-H3P2O8, [^68Ga]Ga-citrate and [^18F]FDG at 120 minutes post-injection in areas of Methicillin-resistant Staphylococcus aureus (MRSA) infection was determined by ex vivo biodistribution. Additionally, the uptake of [^68Ga]Ga-H3P2O8, [^68Ga]Ga-citrate and [^18F]FDG at 120 minutes post-injection in an inflammation was determined similarly. […]

[3] = test system: Methicillin-resistant Staphylococcus aureus (MRSA); type: in vivo, rats; details: PET image analysis, p<0.05 (FIG. 30)
[4] = PET image analysis (SUV) of inflamed tibia in foreign body inflammation rat model; type: in vivo, rats; details: each time point up to 120 minutes (FIG. 27)
Description: as §1
To assess the preferential uptake of novel [^68Ga]Ga-H3P2O8 PET probe in infection as compared to inflammation, the same surgery and imaging was performed but omitted the MRSA. […] The probe [^68Ga]Ga-H3P2O8 was also successfully used to detect thigh infection caused by E coli in a mouse model.
To further investigate the selectivity of [^68Ga]Ga-H3P2O8 for imaging infection over inflammation, this novel probe was compared to other PET imaging probes, [^68Ga]Ga-Citrate and [^18F]FDG in an inflammation model. In a side-by-side study, all three probes were used to image inflammation (i.e., an inflamed tibia) in an osteomyelitis foreign body rat model.

[5] = PET/CT image analysis (SUV) in normal rat model; type: in vivo, rats; details: for SUV (Average ± SD), Normal Tibia: Normal group
Description: as §1, §2

[6] = test system: Pseudomonas aeruginosa (P. aeruginosa); test: Ex vivo biodistribution in osteomyelitis foreign body rat model with P. aeruginosa infection vs inflammation model; design: species or system rats; details: 120 minutes post-injection, comparable SUVs except bladder and feces (FIG. 35)
Description: as §2, with “In the 2-week-old osteomyelitis model used in the study, the infected tibia contained 7.00±0.19 log10 cfu/g tibia (n=10) and 5.41±0.40 log10 cfu/K-wire (n=10).” left out

## O=P(O)(O)[O][Ga]1[O]P(=O)(O)[O]1 [[^68Ga]Ga-H3P2O8, [^68Ga]Ga-hydrogen bisphosphate]
[1]; MRSA infected tibia, after 60 minutes post injection, PET image analysis (FIG. 26)
  mean SUV in infected tibia compared with [^68Ga]Ga-Citrate or [^18F]FDG: significantly higher mean SUV
[1]; n = 5, 15 min post-injection
  SUV (Average ± SD), Contralateral Tibia: 0.76 ± 0.17 SUV
  SUV (Average ± SD), Infected Tibia: 1.82 ± 0.57 SUV
  SUV (Average ± SD), Muscle: 0.59 ± 0.14 SUV
[1]; n = 5, 30 min post-injection
  SUV (Average ± SD), Contralateral Tibia: 0.59 ± 0.12 SUV
  SUV (Average ± SD), Infected Tibia: 2.40 ± 0.49 SUV
  SUV (Average ± SD), Muscle: 0.58 ± 0.20 SUV
[1]; n = 5, 60 min post-injection
  SUV (Average ± SD), Contralateral Tibia: 0.60 ± 0.15 SUV
  SUV (Average ± SD), Infected Tibia: 2.87 ± 0.66 SUV
  SUV (Average ± SD), Muscle: 0.67 ± 0.18 SUV
[1]; n = 5, 120 min post-injection
  SUV (Average ± SD), Contralateral Tibia: 0.29 ± 0.18 SUV
  SUV (Average ± SD), Infected Tibia: 3.48 ± 0.25 SUV
  SUV (Average ± SD), Muscle: 0.76 ± 0.30 SUV
[2]
  uptake as SUV ratios (Operated tibia/contralateral tibia), MRSA vs P. aeruginosa: significant difference in uptake
[3]
  mean SUV for MRSA-infected animal compared with animals infected with K. pneumoniae or P. aeruginosa: significantly higher
[4]
  difference in mean SUV between the probes in inflamed tibia: no significant difference
[5]; n = 4, 15 min post-injection
  SUV (Average ± SD), Normal Tibia: 0.76 ± 0.03 SUV
  SUV (Average ± SD), Muscle in Normal group: 0.35 ± 0.10 SUV
[5]; n = 4, 30 min post-injection
  SUV (Average ± SD), Normal Tibia: 0.76 ± 0.09 SUV
  SUV (Average ± SD), Muscle in Normal group: 0.50 ± 0.12 SUV
[5]; n = 4, 60 min post-injection
  SUV (Average ± SD), Normal Tibia: 0.80 ± 0.09 SUV
  SUV (Average ± SD), Muscle in Normal group: 0.49 ± 0.10 SUV
[5]; n = 4, 120 min post-injection
  SUV (Average ± SD), Normal Tibia: 0.89 ± 0.16 SUV
  SUV (Average ± SD), Muscle in Normal group: 0.48 ± 0.09 SUV
[6]
  distribution in organs/excrement of infected model compared with inflammation model: similar

Reference: US20260115331A1, “PET IMAGING OF BACTERIAL INFECTION WITH A PET PROBE” (Mayo Foundation for Medical Education and Research, priority 2022, published 2026)
